Assay results from paper PMC7316778 (Nature Communications, 2020).
Values joined by “and” are separate entries in the source; they are usually repeats but may differ in a detail not shown here. Equal entries are not always repeated. Where two headings read alike, the source gives them in different places.

Tests used:
PRKG2 (PKG2) = PRKG2 (PKG2) (Homo sapiens, UniProt Q13237); assay: SelectScreen kinase assay
Method: (§1) Selectivity profiling assays were performed by the Invitrogen SelectScreen™ Services. […] The concentration of ATP was selected to be equal to the KM, unless indicated otherwise.

EPHA8 = EPHA8 (Homo sapiens, UniProt P29322); assay: SelectScreen kinase assay
Method: as §1

PIM1 = PIM1 (Homo sapiens, UniProt P11309); assay: SelectScreen kinase assay; details: for Inhibition at 1 µM (%): PIM1, ZLYTE, ATP Km app
Method: as §1

MAPK9 (JNK2) = MAPK9 (JNK2) (Homo sapiens, UniProt P45984); assay: SelectScreen kinase assay
MAPK9 (JNK2), sequence (P45984 whole entry): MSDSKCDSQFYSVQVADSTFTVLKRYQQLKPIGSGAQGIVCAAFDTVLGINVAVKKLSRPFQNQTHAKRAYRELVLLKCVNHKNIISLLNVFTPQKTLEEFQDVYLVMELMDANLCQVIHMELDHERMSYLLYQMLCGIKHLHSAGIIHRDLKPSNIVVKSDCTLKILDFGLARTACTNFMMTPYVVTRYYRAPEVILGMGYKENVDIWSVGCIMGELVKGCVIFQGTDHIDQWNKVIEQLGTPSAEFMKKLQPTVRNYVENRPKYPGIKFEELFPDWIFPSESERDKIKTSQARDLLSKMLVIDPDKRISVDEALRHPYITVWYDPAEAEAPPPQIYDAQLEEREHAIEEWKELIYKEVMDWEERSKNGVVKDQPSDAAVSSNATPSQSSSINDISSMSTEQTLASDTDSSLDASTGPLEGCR
Method: as §1

TAOK3 (JIK) = target: T1, TAOK3 (JIK) (Homo sapiens, UniProt Q9H2K8); assay: SelectScreen kinase assay; details: for Inhibition at 1 µM (%): LanthaScreen Binding
T1 sequence (Q9H2K8 1-898): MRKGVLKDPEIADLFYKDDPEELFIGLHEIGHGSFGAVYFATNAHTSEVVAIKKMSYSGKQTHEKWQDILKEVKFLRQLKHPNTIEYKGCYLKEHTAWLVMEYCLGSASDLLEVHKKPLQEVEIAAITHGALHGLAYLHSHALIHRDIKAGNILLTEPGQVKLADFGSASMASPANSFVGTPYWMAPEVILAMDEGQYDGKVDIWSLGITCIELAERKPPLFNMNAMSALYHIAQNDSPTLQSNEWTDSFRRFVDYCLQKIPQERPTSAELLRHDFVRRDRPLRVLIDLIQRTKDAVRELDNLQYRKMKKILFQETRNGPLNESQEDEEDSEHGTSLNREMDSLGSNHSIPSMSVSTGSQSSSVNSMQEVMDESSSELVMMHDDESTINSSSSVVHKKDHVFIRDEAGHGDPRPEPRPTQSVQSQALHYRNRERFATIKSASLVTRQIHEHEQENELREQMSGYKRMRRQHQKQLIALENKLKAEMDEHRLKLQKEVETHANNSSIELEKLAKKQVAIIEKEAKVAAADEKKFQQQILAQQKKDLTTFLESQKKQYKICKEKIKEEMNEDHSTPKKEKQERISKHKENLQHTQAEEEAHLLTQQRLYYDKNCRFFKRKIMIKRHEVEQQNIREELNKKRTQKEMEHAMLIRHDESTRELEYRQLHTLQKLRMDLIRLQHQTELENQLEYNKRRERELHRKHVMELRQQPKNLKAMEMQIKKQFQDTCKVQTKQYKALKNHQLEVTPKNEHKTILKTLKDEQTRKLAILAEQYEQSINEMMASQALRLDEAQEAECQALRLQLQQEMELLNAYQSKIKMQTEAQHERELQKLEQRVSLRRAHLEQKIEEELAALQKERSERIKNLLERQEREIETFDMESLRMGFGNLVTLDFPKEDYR
Method: as §1

PEAK1 = PEAK1 (Homo sapiens, UniProt Q9H792); assay: SelectScreen kinase assay
PEAK1, sequence (Q9H792 whole entry): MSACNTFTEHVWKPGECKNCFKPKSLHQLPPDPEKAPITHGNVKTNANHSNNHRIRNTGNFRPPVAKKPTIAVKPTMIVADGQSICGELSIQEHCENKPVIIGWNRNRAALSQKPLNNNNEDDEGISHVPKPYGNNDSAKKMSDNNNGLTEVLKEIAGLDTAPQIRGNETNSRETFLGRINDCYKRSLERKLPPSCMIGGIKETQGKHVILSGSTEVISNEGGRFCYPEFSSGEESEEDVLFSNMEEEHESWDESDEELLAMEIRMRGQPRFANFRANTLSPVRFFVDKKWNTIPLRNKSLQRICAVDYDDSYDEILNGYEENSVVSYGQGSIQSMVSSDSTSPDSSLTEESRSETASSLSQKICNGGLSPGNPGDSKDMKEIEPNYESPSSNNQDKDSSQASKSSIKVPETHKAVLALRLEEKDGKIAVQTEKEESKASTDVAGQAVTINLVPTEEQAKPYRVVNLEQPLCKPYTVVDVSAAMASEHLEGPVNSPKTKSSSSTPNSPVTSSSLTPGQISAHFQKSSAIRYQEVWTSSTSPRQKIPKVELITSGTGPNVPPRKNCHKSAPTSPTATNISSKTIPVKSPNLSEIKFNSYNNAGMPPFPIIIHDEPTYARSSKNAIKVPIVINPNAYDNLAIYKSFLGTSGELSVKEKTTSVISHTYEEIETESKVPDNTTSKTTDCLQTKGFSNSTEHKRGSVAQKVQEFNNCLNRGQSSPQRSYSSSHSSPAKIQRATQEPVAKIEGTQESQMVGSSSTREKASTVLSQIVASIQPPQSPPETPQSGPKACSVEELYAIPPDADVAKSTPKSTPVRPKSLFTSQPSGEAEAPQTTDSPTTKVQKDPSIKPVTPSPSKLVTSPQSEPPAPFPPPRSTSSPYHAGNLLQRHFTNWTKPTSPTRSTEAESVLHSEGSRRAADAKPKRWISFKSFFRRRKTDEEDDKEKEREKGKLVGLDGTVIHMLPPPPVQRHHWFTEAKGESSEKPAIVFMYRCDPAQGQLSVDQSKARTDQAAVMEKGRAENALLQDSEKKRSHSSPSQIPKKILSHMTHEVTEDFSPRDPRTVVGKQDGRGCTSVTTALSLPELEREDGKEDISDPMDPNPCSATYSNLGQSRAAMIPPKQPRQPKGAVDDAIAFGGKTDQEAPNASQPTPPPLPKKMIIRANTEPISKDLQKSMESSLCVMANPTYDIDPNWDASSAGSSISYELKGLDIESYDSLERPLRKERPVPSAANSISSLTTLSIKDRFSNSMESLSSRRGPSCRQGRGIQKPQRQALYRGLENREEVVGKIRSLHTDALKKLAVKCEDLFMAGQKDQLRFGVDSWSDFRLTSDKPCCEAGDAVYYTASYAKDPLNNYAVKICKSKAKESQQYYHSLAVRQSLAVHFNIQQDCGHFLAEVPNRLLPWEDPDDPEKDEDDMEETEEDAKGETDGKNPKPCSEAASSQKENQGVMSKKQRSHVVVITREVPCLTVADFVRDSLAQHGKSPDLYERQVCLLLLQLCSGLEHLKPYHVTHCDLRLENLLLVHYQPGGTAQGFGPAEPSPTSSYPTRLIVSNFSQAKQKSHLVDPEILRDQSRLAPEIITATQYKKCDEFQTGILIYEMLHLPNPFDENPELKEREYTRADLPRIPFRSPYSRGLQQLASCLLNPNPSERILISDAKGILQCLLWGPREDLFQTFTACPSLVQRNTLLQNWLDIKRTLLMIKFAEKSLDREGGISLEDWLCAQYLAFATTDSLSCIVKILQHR
Method: as §1

AKT2 (PKB beta) = AKT2 (PKB beta) (Homo sapiens, UniProt P31751); assay: SelectScreen kinase assay; details: for Inhibition at 1 µM (%): AKT2 (PKB beta), ZLYTE, ATP Km app
AKT2 (PKB beta), sequence (P31751 whole entry): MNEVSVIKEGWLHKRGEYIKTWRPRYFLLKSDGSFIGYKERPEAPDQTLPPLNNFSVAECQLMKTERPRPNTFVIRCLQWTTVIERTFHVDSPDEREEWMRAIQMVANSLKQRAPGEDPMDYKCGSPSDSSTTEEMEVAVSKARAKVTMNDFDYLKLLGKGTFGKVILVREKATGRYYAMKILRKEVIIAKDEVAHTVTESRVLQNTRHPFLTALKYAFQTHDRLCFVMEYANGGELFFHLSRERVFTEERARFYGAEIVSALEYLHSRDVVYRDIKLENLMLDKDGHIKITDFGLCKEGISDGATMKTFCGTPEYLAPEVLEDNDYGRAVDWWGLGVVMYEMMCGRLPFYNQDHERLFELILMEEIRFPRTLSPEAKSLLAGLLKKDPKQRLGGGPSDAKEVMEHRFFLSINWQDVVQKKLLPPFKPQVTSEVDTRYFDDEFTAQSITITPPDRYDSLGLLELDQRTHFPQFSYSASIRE
Method: as §1

ERBB4 (HER4) = ERBB4 (HER4) (Homo sapiens, UniProt Q15303); assay: SelectScreen kinase assay; details: for Inhibition at 1 µM (%): ERBB4 (HER4), ZLYTE, ATP Km app
Method: as §1

CDK6/cyclin D1 = CDK6/cyclin D1 (Homo sapiens, UniProt Q00534); assay: SelectScreen kinase assay; details: 1 h, 1 μM WEL028, 1 h preincubation
Method: as §1

EPHA5 = EPHA5 (Homo sapiens, UniProt P54756); assay: SelectScreen kinase assay
Method: as §1

PLK3 = PLK3 (Homo sapiens, UniProt Q9H4B4); assay: SelectScreen kinase assay
PLK3, sequence (Q9H4B4 whole entry): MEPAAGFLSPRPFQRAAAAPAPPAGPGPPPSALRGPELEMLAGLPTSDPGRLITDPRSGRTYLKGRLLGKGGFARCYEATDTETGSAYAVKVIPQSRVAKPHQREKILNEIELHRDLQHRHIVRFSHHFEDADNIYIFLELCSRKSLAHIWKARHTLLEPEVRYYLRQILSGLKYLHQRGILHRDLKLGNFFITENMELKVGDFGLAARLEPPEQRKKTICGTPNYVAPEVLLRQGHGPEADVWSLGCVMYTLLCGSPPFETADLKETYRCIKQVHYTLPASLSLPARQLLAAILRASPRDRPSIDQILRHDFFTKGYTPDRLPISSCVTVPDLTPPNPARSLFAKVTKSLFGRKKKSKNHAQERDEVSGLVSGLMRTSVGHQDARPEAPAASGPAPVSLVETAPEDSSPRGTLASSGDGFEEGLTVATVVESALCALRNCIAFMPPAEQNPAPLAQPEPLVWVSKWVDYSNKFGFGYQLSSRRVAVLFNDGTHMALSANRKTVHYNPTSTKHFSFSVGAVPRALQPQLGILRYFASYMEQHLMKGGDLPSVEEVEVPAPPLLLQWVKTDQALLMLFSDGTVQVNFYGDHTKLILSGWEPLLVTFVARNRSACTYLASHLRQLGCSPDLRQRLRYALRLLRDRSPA
Method: as §1

DAPK1 = DAPK1 (Homo sapiens, UniProt P53355); assay: SelectScreen kinase assay
Method: as §1

[1] = target: T2, endogenous FES^S700C in HL-60 cells (Homo sapiens, UniProt P07332, S700C); assay: Gel-based target engagement during neutrophil differentiation; assay type: cell-based; details: 100 nM; Supplementary Figure 12b; individual replicates; listed as WEL028
T2 construct: endogenous in cells; host or cells: HL-60 FES^S700C clone, differentiated to macrophages or neutrophils

MAPK10 (JNK3) = MAPK10 (JNK3) (Homo sapiens, UniProt P53779); assay: SelectScreen kinase assay
Method: as §1

DDR1 = DDR1 (Homo sapiens, UniProt Q08345); assay: SelectScreen kinase assay
Method: as §1

NEK6 = NEK6 (Homo sapiens, UniProt Q9HC98); assay: SelectScreen kinase assay; details: for Inhibition at 1 µM (%): NEK6, ZLYTE, ATP Km app
Method: as §1

PRKG1 = PRKG1 (Homo sapiens, UniProt Q13976); assay: SelectScreen kinase assay
PRKG1, sequence (Q13976 whole entry): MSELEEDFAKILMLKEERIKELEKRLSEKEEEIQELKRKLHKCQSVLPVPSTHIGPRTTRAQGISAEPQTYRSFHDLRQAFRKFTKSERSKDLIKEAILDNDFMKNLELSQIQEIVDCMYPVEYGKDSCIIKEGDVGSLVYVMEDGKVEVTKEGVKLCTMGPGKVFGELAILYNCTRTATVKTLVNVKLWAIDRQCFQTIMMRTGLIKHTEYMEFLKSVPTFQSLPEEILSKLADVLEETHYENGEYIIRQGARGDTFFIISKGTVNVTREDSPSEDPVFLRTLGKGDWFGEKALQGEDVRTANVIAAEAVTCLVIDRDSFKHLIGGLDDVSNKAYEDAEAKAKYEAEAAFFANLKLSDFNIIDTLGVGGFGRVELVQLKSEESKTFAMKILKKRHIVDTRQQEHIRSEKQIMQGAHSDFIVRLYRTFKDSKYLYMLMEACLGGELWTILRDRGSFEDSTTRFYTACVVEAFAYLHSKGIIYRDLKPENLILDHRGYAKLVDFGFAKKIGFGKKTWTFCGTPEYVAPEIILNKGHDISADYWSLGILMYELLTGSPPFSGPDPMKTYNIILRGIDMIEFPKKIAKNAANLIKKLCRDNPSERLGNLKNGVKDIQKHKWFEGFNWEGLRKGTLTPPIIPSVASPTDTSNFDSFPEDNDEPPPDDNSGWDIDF
Method: as §1

CDK4/cyclin D1 = CDK4/cyclin D1 (Homo sapiens, UniProt P11802); assay: SelectScreen kinase assay; details: for Inhibition at 1 µM (%): CDK4/cyclin D1, Adapta, ATP 10
CDK4/cyclin D1, sequence (P11802 whole entry): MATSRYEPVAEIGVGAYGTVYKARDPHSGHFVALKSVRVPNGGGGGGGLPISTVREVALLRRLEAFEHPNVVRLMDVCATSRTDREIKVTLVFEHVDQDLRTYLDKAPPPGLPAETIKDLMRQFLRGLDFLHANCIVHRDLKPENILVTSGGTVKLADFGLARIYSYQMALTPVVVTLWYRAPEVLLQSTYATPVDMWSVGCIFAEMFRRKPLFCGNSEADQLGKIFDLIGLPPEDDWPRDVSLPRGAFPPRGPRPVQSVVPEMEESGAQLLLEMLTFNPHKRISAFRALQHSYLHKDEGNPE
CDK4/cyclin D1, sequence (P24385 whole entry partner): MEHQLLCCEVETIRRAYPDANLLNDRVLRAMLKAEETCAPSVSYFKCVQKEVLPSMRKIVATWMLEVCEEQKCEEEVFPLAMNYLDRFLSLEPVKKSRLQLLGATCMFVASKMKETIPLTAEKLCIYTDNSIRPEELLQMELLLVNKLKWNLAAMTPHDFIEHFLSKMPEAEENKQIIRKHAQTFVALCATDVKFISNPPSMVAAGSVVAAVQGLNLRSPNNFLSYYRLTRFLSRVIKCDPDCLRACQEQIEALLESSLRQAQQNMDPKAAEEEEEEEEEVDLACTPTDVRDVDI
Method: as §1

CSNK1G2 (CK1 gamma 2) = CSNK1G2 (CK1 gamma 2) (Homo sapiens, UniProt P78368); assay: SelectScreen kinase assay
CSNK1G2 (CK1 gamma 2), sequence (P78368 whole entry): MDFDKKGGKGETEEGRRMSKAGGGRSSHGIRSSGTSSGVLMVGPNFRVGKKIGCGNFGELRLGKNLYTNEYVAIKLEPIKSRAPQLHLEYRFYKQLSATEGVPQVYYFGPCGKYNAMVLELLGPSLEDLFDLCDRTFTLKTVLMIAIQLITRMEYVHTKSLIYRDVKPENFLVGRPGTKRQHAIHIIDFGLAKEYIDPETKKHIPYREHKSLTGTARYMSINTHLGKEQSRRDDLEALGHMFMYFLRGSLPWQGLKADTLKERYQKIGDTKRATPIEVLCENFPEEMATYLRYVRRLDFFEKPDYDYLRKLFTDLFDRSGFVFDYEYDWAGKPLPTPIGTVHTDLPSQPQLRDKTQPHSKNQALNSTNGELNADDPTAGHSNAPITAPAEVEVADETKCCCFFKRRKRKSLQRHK
Method: as §1

PIK3CG (p110 gamma) = PIK3CG (p110 gamma) (Homo sapiens, UniProt P48736); assay: SelectScreen kinase assay
Method: as §1

[2] = 1 h, 1 μM WEL028, 1 h preincubation

C#CCOc1ccc(Nc2ncc(Cl)c(Nc3ccccc3NC(=O)C=C)n2)c(OC)c1 [Compound 6]
Inhibition at 1 µM (%) (PRKG2 (PKG2); 1 µM, ZLYTE, ATP Km app): 13%
inhibition at 1 µM (PRKG2 (PKG2); [2]): 4%
inhibition at 1 µM (EPHA8; 1 h): -7%
inhibition at 1 µM (EPHA8; read-out: Inhibition at 1 µM (%)): -7%
inhibition at 1 µM (PIM1; [2]): -8%
Inhibition at 1 µM (%) (PIM1): -11%
Inhibition at 1 µM (%) (PIM1; listed as WEL028, 1 µM): -5%
Inhibition (%) (MAPK9 (JNK2); 1 μM WEL028, 1 h preincubation): 2%
Inhibition at 1 µM (%) (MAPK9 (JNK2); MAPK9 (JNK2), 1 µM, ZLYTE, ATP 100, listed as WEL028, 1 µM): -1% and 5%
Inhibition at 1 µM (%) (TAOK3 (JIK)): 2%
Inhibition at 1 µM (%) (TAOK3 (JIK); listed as WEL028, 1 µM): 0%
inhibition at 1 µM (TAOK3 (JIK); [2]): 1%
inhibition at 1 µM (PEAK1; [2]): 7%
Inhibition at 1 µM (%) (PEAK1; PEAK1, 1 µM, ZLYTE, ATP Km app, listed as WEL028, 1 µM): 8%
inhibition at 1 µM (PEAK1; read-out: Inhibition at 1 µM (%), PEAK1, 1 µM, ZLYTE, ATP Km app): 6%
inhibition at 1 µM (AKT2 (PKB beta); [2]): -1%
Inhibition at 1 µM (%) (AKT2 (PKB beta)): -2%
Inhibition at 1 µM (%) (AKT2 (PKB beta); listed as WEL028, 1 µM): 0%
inhibition at 1 µM (ERBB4 (HER4); [2]): 8%
Inhibition at 1 µM (%) (ERBB4 (HER4)): 11%
Inhibition at 1 µM (%) (ERBB4 (HER4); listed as WEL028, 1 µM): 5%
inhibition at 1 µM (CDK6/cyclin D1): -6%
Inhibition (%) (EPHA5; 1 μM WEL028, 1 h preincubation): 0%
Inhibition at 1 µM (%) (EPHA5; EPHA5, 1 µM, ZLYTE, ATP Km app, listed as WEL028, 1 µM): 3% and -2%
inhibition at 1 µM (PLK3; [2]): -1%
Inhibition at 1 µM (%) (PLK3; PLK3, 1 µM, ZLYTE, ATP Km app, listed as WEL028, 1 µM): 2% and -3%
inhibition at 1 µM (DAPK1; [2]): 12%
Inhibition at 1 µM (%) (DAPK1; DAPK1, 1 µM, Adapta, ATP Km app, listed as WEL028, 1 µM): 13%
inhibition at 1 µM (DAPK1; read-out: Inhibition at 1 µM (%), DAPK1, 1 µM, Adapta, ATP Km app): 12%
Relative FES labeling (%) [1]: 10.1064% and 13.5252% and 6.003%
Inhibition (%) (MAPK10 (JNK3); 1 μM WEL028, 1 h preincubation): -7%
Inhibition at 1 µM (%) (MAPK10 (JNK3); MAPK10 (JNK3), 1 µM, ZLYTE, ATP 100): -14%
inhibition at 1 µM (DDR1; [2]): -2%
Inhibition at 1 µM (%) (DDR1; DDR1, 1 µM, LanthaScreen Binding, listed as WEL028, 1 µM): -3%
inhibition at 1 µM (NEK6; [2]): 9%
Inhibition at 1 µM (%) (NEK6): 13%
Inhibition at 1 µM (%) (NEK6; listed as WEL028, 1 µM): 5%
Inhibition at 1 µM (%) (PRKG1; 1 µM, ZLYTE, ATP Km app, listed as WEL028, 1 µM): -6% and 0%
inhibition at 1 µM (PRKG1; [2]): -3%
inhibition at 1 µM (CDK4/cyclin D1; [2]): -10%
Inhibition at 1 µM (%) (CDK4/cyclin D1): -14%
Inhibition at 1 µM (%) (CDK4/cyclin D1; listed as WEL028, 1 µM): -6%
Inhibition (%) (CSNK1G2 (CK1 gamma 2); 1 μM WEL028, 1 h preincubation): 4%
Inhibition at 1 µM (%) (CSNK1G2 (CK1 gamma 2); CSNK1G2 (CK1 gamma 2), 1 µM, ZLYTE, ATP Km app, listed as WEL028, 1 µM): 7% and 1%
inhibition at 1 µM (PIK3CG (p110 gamma); [2]): 13%
Inhibition at 1 µM (%) (PIK3CG (p110 gamma); PIK3CG (p110 gamma), 1 µM, Adapta, ATP Km app, listed as WEL028, 1 µM): 18%
inhibition at 1 µM (PIK3CG (p110 gamma); read-out: Inhibition at 1 µM (%), PIK3CG (p110 gamma), 1 µM, Adapta, ATP Km app): 9%
